According to patent publication US4102994A, “Aliphatic amido-quaternary ammonium anti-microbial compounds” (Colgate-Palmolive Company, priority 1977, dated 1978):
Like-named read-outs stand apart in the source and are kept apart here.

How the values were obtained:
[1] = system: A. niger; test: Test tube serial dilution test (minimal inhibitory concentration); format: cell-based; settings: Aspergillus niger, broth serial dilution, read-out: Minimum Inhibitory Concentration
Protocol: (§1) The anti-microbial nature of the instant novel compounds was shown by a standard test tube serial dilution test in which an appropriate number of test tubes of broth containing decreasing concentrations of the test agent was innoculated with the test organism. After a suitable period of incubation, the tubes were examined for the presence or absence of growth. The activity of the test agent was the lowest concentration which inhibited the growth of the organism and is expressed as the minimal inhibitory concentration in ppm. As shown in the following table of antimicrobial data, a definite break occurs between compounds wherein R^4 contains 8 carbons and 10 carbons.

[2] = system: C. albicans; test: as above; format: cell-based; settings: Candida albicans
Protocol: as §1

[3] = system: E. coli; test: as above; format: cell-based; settings: Escherichia coli
Protocol: as §1

[4] = system: P. aeruginosa; test: as above; format: cell-based; settings: Pseudomonas aeruginosa, broth serial dilution, read-out: Minimum Inhibitory Concentration
Protocol: as §1

[5] = system: S. aureus; test: as above; format: cell-based; settings: Staphylococcus aureus
Protocol: as §1

[6] = system: Str. mutans; test: as above; format: cell-based; settings: Streptococcus mutans, broth serial dilution, read-out: Minimum Inhibitory Concentration
Protocol: as §1

[7] = system: Str. sanguis; test: as above; format: cell-based; settings: Streptococcus, broth serial dilution, read-out: Minimum Inhibitory Concentration
Protocol: as §1

[8] = system: A. naeslundii; test: as above; format: cell-based, Actinomycetes naeslundii; settings: Actinomyces naeslundii, broth serial dilution, read-out: Minimum Inhibitory Concentration
Protocol: as §1

[9] = system: T. mentagrophytes; test: as above; format: cell-based, Trichophyton mentogrophytes; settings: Trichophyton mentagrophytes
Protocol: as §1

[10] = system: Str. mitis; test: as above; format: cell-based; settings: Streptococcus mitis
Protocol: as §1

[11] = system: dental calculus; test: Dental calculus inhibition in rats on Zipkin-McClure calculus producing diet, Baer's method; format: in vivo, littermated albino rats; settings: .1% test solution, teeth swabbed thirty seconds each day for six weeks, vs water control, 99% significant
Excerpt: The quaternary ammonium amides of adamantanecarboxylic acid are particularly effective in inhibiting the development of dental calculus as shown by the results of tests on littermated albino rats, in groups of 15 males and 15 females who were fed a Zipkin-McClure calculus producing diet. For six weeks the teeth of each animal were swabbed for thirty seconds each day with a test solution or water for the control group. The animals were then sacrificed, defleshed and scored by Baer's method for calculus. The results were analyzed by Student's "t" test and in the results quoted were 99% significant.

[12] = C. albicans, broth serial dilution, read-out: Minimum Inhibitory Concentration
[13] = E. coli, broth serial dilution, read-out: Minimum Inhibitory Concentration
[14] = S. aureus, broth serial dilution, read-out: Minimum Inhibitory Concentration
[15] = T. mentagrophytes, broth serial dilution, read-out: Minimum Inhibitory Concentration
[16] = Str. mitis, broth serial dilution, read-out: Minimum Inhibitory Concentration
[17] = Table III, no quantity or unit printed in the table, minimal inhibitory concentration in ppm, read-out: antimicrobial results, C.albicans (Table III)
[18] = Table III, no quantity or unit printed in the table, minimal inhibitory concentration in ppm, read-out: antimicrobial results, E.coli (Table III)
[19] = read-out: antimicrobial results, S.aureus (Table III)
[20] = Table III, no quantity or unit printed in the table, minimal inhibitory concentration in ppm, read-out: antimicrobial results, S.mitis (Table III)
[21] = Table III, no quantity or unit printed in the table, minimal inhibitory concentration in ppm, read-out: antimicrobial results, T.mentagrophytes (Table III)

| SMILES | MIC [1] | MIC [2, 12] | MIC [3, 13] | MIC [4] | MIC [5, 14] | MIC [6] | MIC [7] | MIC [8] | MIC [9, 15] | MIC [10, 16] | Calculus Reduction, Females ([11]; females) | Calculus Reduction, Males ([11]; males) | MIC [2, 17] | MIC [3, 18] | MIC [5, 19] | MIC [10, 20] | MIC [9, 21] |
| --- | --- | --- | --- | --- | --- | --- | --- | --- | --- | --- | --- | --- | --- | --- | --- | --- | --- |
| CCCCCCCCCCCCCC[N+](C)(C)CCCNC(=O)[C@H]1CC[C@@H]2CCC[C@@H]21 (relative stereo) [Comp.14, 3-(exo,cis-Bicyclooctane-2-carboxamido)propyltetradecyl dimethyl ammonium bromide] | 25 µg/mL | 3.12 µg/mL | 50 µg/mL | 50 µg/mL | 0.78 µg/mL | < 0.05 µg/mL | 6.25 µg/mL | < 0.05 µg/mL | 3.12 µg/mL |  |  |  |  |  |  |  |  |
| CCCCCCCCCCCC[N+](C)(C)CCCNC(=O)[C@H]1CC[C@@H]2CCC[C@@H]21 (relative stereo) [Comp.15] | 25 µg/mL | 3.12 µg/mL | 25 µg/mL | 25 µg/mL | 1.56 µg/mL | 0.1 µg/mL | 3.12 µg/mL | 0.19 µg/mL | 6.25 µg/mL |  |  |  |  |  |  |  |  |
| CCCCCCCCCC[N+](C)(C)CCCNC(=O)CCCCCCC.[I-] [Comp.3, 3-Octaneamidopropyldimethyldecyl ammonium iodide] | 25 µg/mL | 6.25 µg/mL | 50 µg/mL | 25 µg/mL | 12.5 µg/mL | 0.78 µg/mL | 6.25 µg/mL | 12.5 µg/mL | 12.5 µg/mL |  |  |  |  |  |  |  |  |
| CCCCCCCCCCCC[N+](C)(C)CCCNC(=O)C12CC3CC(CC(C3)C1)C2 [Comp.9, 3-(1'-adamantanecarboxamido)propyldimethyldodecyl ammonium bromide] | 25 µg/mL | 6.25 µg/mL | 50 µg/mL |  | 0.78 µg/mL |  |  |  | 12.5 µg/mL | 0.39 µg/mL |  |  |  |  |  |  |  |
| CCCCCCCCCCCCCC[N+](C)(C)CCCNC(=O)C12CC3CC(CC(C3)C1)C2 [Comp.10, 3-(1'-adamantanecarboxamido)propyldimethyltetradecyl ammonium bromide] | 50 µg/mL | 6.25 µg/mL | 25 µg/mL |  | 0.39 µg/mL |  |  |  | 25 µg/mL | 0.39 µg/mL | 6.27% | 43.43% |  |  |  |  |  |
| CCCCCCCCCCCCCC[N+](C)(C)CCCNC(=O)C1CC2CCC1C2 (centres unmarked) [Comp.16, 3-(2'-norbornanecarboxamido)propyltetradecyldimethyl ammonium bromide] | 25 µg/mL | 3.12 µg/mL | 50 µg/mL | 50 µg/mL | 1.56 µg/mL | 0.1 µg/mL | 1.56 µg/mL | 0.1 µg/mL | 6.25 µg/mL |  |  |  |  |  |  |  |  |
| CCCCCCCCCCCCCC[N+](C)(C)CCCNC(=O)C(CC)CCCC (centres unmarked) [R *C7 (branch), R^4 C14, X Cl] |  |  |  |  |  |  |  |  |  |  |  |  | 3.12 µg/mL | 50 µg/mL | 0.78 µg/mL | 1.56 µg/mL | 6.25 µg/mL |
| CCCCCCCCCCCC[N+](C)(C)CCCNC(=O)C(CC)CCCC (centres unmarked) [R *C7 branch, R^4 C12, X I] |  |  |  |  |  |  |  |  |  |  |  |  | 3.12 µg/mL | 50 µg/mL | 1.56 µg/mL | 3.12 µg/mL | 12.5 µg/mL |
| CCCCCCCCCCCCCC[N+](C)(C)CCCNC(=O)CCCCCCC.[Cl-] [R C7, R^4 C14, X Cl, 3-Octaneamidopropyldimethyltetradecyl ammonium chloride] |  |  |  |  |  |  |  |  |  |  |  |  | 3.12 µg/mL | 50 µg/mL | 0.78 µg/mL | 1.56 µg/mL | 3.12 µg/mL |
| CCCCCCCCCCCC[N+](C)(C)CCCNC(=O)CCCCCCCC [R C8, R^4 C12, X I] |  |  |  |  |  |  |  |  |  |  |  |  | 1.56 µg/mL | 12.5 µg/mL | 0.78 µg/mL | 1.56 µg/mL | 12.5 µg/mL |
| CCCCCCCCCCCCCC[N+](C)(C)CCCNC(=O)CCCCCCCC.[Cl-] [R C8, R^4 C14, X Cl, 3-Nonaneamidopropyldimethyltetradecyl ammonium chloride] |  |  |  |  |  |  |  |  |  |  |  |  | 1.56 µg/mL | 100 µg/mL | 1.56 µg/mL | 0.78 µg/mL | 3.12 µg/mL |
| CCCCCCCCCCCCCC[N+](C)(C)CCCNC(=O)CCCCCCCCC.[Cl-] [R C9, R^4 C14, X Cl, 3-Decaneamidopropyldimethyltetradecyl ammonium chloride] |  |  |  |  |  |  |  |  |  |  |  |  | 3.12 µg/mL | 100 µg/mL | 3.12 µg/mL | 6.25 µg/mL | 6.25 µg/mL |
| CCCCCCCCCCCC(=O)NCCC[N+](C)(C)C [R C11, R^4 C1, X I, reference compound] |  |  |  |  |  |  |  |  |  |  |  |  | 50 µg/mL | 50 µg/mL | 50 µg/mL | 50 µg/mL | 50 µg/mL |
| CCCCCCCCCCCCCC[N+](C)(C)CCCNC(=O)CCCCCCCCCCC.[Cl-] [R C11, R^4 C14, X Cl, 3-Dodecaneamidopropyldimethyltetradecyl ammonium chloride] |  |  |  |  |  |  |  |  |  |  |  |  | 25 µg/mL | 100 µg/mL | 6.25 µg/mL | 12.5 µg/mL | 25 µg/mL |
| CCCC[N+](CC)(CC)CCNC(=O)C12CC3CC(CC(C3)C1)C2 [R^4 =C4 H9, reference compound] | 100 µg/mL | 100 µg/mL |  |  | 100 µg/mL | 100 µg/mL | 50 µg/mL | 100 µg/mL | 50 µg/mL |  |  |  |  |  |  |  |  |
| CCCCCC[N+](CC)(CC)CCNC(=O)C12CC3CC(CC(C3)C1)C2 [R^4 =C6 H13, reference compound] | 100 µg/mL | 100 µg/mL |  |  | 100 µg/mL | 100 µg/mL | 50 µg/mL | 50 µg/mL | 50 µg/mL |  |  |  |  |  |  |  |  |
| CCCCCCCC[N+](CC)(CC)CCNC(=O)C12CC3CC(CC(C3)C1)C2 [R^4 =C8 H17, reference compound] | 100 µg/mL | 50 µg/mL |  |  | 25 µg/mL | 25 µg/mL | 50 µg/mL | 12.5 µg/mL | 50 µg/mL |  |  |  |  |  |  |  |  |
| CCCCCCCCCC[N+](CC)(CC)CCNC(=O)C12CC3CC(CC(C3)C1)C2 [R^4 =C10 H21] | 50 µg/mL | 6.25 µg/mL |  |  | 3.12 µg/mL | 6.25 µg/mL | 6.25 µg/mL | 1.56 µg/mL | 50 µg/mL |  |  |  |  |  |  |  |  |
| CCCCCCCCCCCC[N+](CC)(CC)CCNC(=O)C12CC3CC(CC(C3)C1)C2 [R^4 =C12 H25] | 12.5 µg/mL | 1.56 µg/mL |  |  | 1.56 µg/mL | 0.78 µg/mL | 3.12 µg/mL | 0.39 µg/mL | 3.12 µg/mL |  |  |  |  |  |  |  |  |
